This experiment deals with ATP. As to the kind of experiment: Intracellular ATP level. Type of experiment: cell-based, human. Set-up: unit not given here. As for the experimental part:
Cellular metabolic states were examined through various assays. To gauge the levels of total intracellular or mitochondrial reactive oxygen species (ROS), cells were stained with CM-H2DCFDA or mitoSOX, respectively. Intracellular H2O2, NADPH, acetyl-CoA, and GSH/GSSG ratios were quantified using commercial assay kits as listed in the Reagents. Intracellular ATP levels were determined utilizing the ATP bioluminescent somatic cell assay and normalized to the total protein concentrations. The de novo synthesized RNA and proteins were assessed in cancer cells using commercial assays following the manufacturer’s protocols. In brief, O-propargyl-puromycin or uridine analog, 5-EU, was applied to stop translation or modify RNA. Polypeptides or modified RNA were measured using fluorescent azide with Ex/Em at 494/521 nm. PDC activity was determined by measuring the reduction of NAD+ to NADH during the conversion of pyruvate into acetyl-CoA.

The structures appear in SMILES notation.

On to `N.N.[Cl][Pt][Cl]` [cisplatin], for which the ATP level by setting is: (A549cisR, pLKO.1, n=1 (Figure 3B)) 1.319; (A549cisR, pLKO.1, n=2 (Figure 3B)) 1.28; (A549cisR, pLKO.1, n=3 (Figure 3B)) 1.1923; (A549cisR, shDLAT, n=1 (Figure 3B)) 1.405; (A549cisR, shDLAT, n=2 (Figure 3B)) 1.318; (A549cisR, shDLAT, n=3 (Figure 3B)) 1.292. Moreover, the ATP level by setting is: (KB-3-1cisR, pLKO.1, n=1 (Figure 3B)) 1.593; (KB-3-1cisR, pLKO.1, n=2 (Figure 3B)) 1.725; (KB-3-1cisR, pLKO.1, n=3 (Figure 3B)) 1.722; (KB-3-1cisR, shDLAT, n=1 (Figure 3B)) 1.707; (KB-3-1cisR, shDLAT, n=2 (Figure 3B)) 1.7048; (KB-3-1cisR, shDLAT, n=3 (Figure 3B)) 1.693.

(Values after paper PMC12508156, “Non-canonical dihydrolipoyl transacetylase promotes chemotherapy resistance via mitochondrial tetrahydrofolate signaling” (Nature Communications, 2025).)
